The values below come from patent US6407316B1, “Method of increasing foreign protein expression” (priority 1997, dated 2002).

The structures appear in SMILES notation.

Assay [1] concerns Heliothis virescens. Kind of assay: Bt cotton tissue incorporated into Heliothis diet, pupation bioassay (EC50P). It is filed as in vivo. Conditions: aldicarb at plant, tissue collected after 90 days. As to the method: Cotton leaves and squares were collected from treatments of Bt Cotton wherein the cotton was treated with Temik® 15G under the following conditions;
A) 0.45 lbs active ingredient per acre at plant (0.5 kg/ha)
B) […] active ingredient per acre at plant; […] and
C) 0.75 lbs active ingredient per acre (0.84 kg/ha) at plant and followed 3 weeks later by a side-dress treatment of 1.0 lbs per acre (1.12 kg/ha) of active ingredient.
One planting was not treated with aldicarb.
After 90 days leaves and squares were collected, washed with soap and water, allowed to dry, washed with acetone, allowed to dry and finally washed with chloroform. The tissues were then freeze dried, ground in a mortar and pestle and stored at room temperature.
The cotton tissues were incorporated into a Heliothis diet and fed to Heliothis virescens. The larvae in the cups were weighed at seven days after infestation and the number of pupae were counted 14 and 21 days after infestation. The percent pupation was calculated at the different concentrations and the EC50P (the amount of tissue per liter of diet that reduced pupation by 50%) was calculated for each insecticide treatment to express the amount of toxin activity in the treatment.

Assay [2] has as its system Roundup Ready® Cotton. The experiment in a line: Fruiting of Roundup Ready Cotton, insecticide at planting, Roundup at six-leaf stage. It is filed as in vivo. The settings on record: for % change from UTC (Squares per Plant) / Squares per Plant: 40 days after Roundup treatment; for % change from UTC (Square & Bolls) / Square & Bolls: after 57 days. As to the method:
(§1) A plot of Roundup Ready® Cotton (RRC was grown up. One part of the plot was treated with Temik® at a rate of 5.6 kg/ha of commercial product at the time of planting of the seed. Another part was treated with Disyston® (disulfoton) at 22.24 kg of commercial product/ha the time of planting of the seed. Another part of the plot was grown from seed treated with Gauch® (imidactoprid) at a rate of 0.357 kg of commercial product per 100 kg of seed. One part of the plot was left untreated by an insecticide which is called hereafter the untreated check (UTC).
Roundup Ready® Cotton was grown up as in Example 5 and treated with Roundup at the six-leaf stage.
The following results were observed 40 days after the Roundup® treatment:
After 57 days, many of the square had matured to bolls.

In assay [3] the test system is NuCotn® 32B. The experiment in a line: Number of bolls on field-grown NuCotn 32B after side-dress aldicarb. It is filed as in vivo, cotton. Conditions: Temik 15G side-dress 7.8 kg/ha commercial product; after a full growing season. From the text:
(§2) Seeds of NuCotn® 32B are planted in a field. Aldicarb, in the form of the commercial product Temik® 15G (a 15% weight/weight granular formulation) is applied as a side-dress at 7.8 kg/ha of commercial product. […] The amount of damage due to bollworm attack on the cotton is less in those treated with aldicarb in comparison to those not treated with aldicarb.

Assay [4] concerns delta-endotoxin. Kind of assay: Delta-endotoxin level in tissues of field-grown NuCotn 32B after in-furrow aldicarb. Conditions: Temik 15G in furrow, about 0.5 kg/ha active ingredient; various points in the growing season. It is filed as in vivo, cotton (NuCotn® 32B). As to the method: Seeds of NuCotn® 32B are planted in a field. Aldicarb, in the form of the commercial product Temik® 15G (a 15% weight/weight granular formulation) is applied in the furrow that comprises the seed at a rate of about 0.5 kg/ha of active ingredient or 3.3 kg/ha of commercial product. At various points in the growing season, the plant tissues are tested for the levels of the delta-endotoxin.

Assay [5] deals with bollworm. Kind of assay: Bollworm damage on field-grown NuCotn 32B after side-dress aldicarb. The settings on record: Temik 15G side-dress 7.8 kg/ha commercial product; after a full growing season. It counts as in vivo.
Excerpt: as §2

Assay [6] has as its system Roundup Ready® Cotton. Kind of assay: Fruiting of Roundup Ready Cotton, insecticide at planting, Roundup at four-leaf stage. The settings on record: for % change from UTC (Squares per Plant) / Squares per Plant / % change from UTC (Squares + Bolls) / Squares + Bolls: Roundup at four-leaf stage; for % change from UTC (Squares per Plant) / Squares per Plant: 45 days after Roundup treatment; for % change from UTC (Squares + Bolls) / Squares + Bolls: after 62 days. It counts as in vivo. As to the method:
as §1
The isopropylamine salt of glyphosate was applied to all the cotton plants at the four-leaf stage in the form of the commercial product Roundup® at a rate of 32 oz of commercial product per acre (=[…] of active ingredient). The following results were observed 45 days after the Roundup® treatment:
After 62 days, many squares had matured to bolls and the following observations were made: […]

`CNC(=O)ON=CC(C)(C)SC` [aldicarb, 2-methyl-2-(methylthio)propionaldehyde O-(methylcarbamoyl)oxime]: the “amount of tissue to reduce pupation by 50% (EC50P) vs untreated check” value in assay [1] (leaf tissue, reading three weeks after infestation) was “higher amounts of tissue”. Besides, the “amount of tissue to reduce pupation by 50% (EC50P) vs untreated check” value in assay [1] (leaf tissue, reading two weeks after infestation) is given as “higher amounts of tissue”. For the same compound, the “amount of tissue to reduce pupation by 50% (EC50P) vs untreated check” value in assay [1] (square tissue, reading three weeks after infestation) is listed as “lesser amounts of tissue”. Besides, in assay [1] (square tissue, reading two weeks after infestation), the “amount of tissue to reduce pupation by 50% (EC50P) vs untreated check” value is “lesser amounts of tissue”. Besides, in assay [2], the “% change from UTC (Squares per Plant)” value is “+23%”, the “Squares per Plant” value is recorded as 10.95, the “% change from UTC (Square & Bolls)” value is “+11%” and the “Square & Bolls” value worked out at 16.0. In addition, in assay [3], the “number of bolls on the plants vs not treated” value was “larger number of bolls”. Also, the “level of the delta-endotoxin in plant tissues vs plants not treated” value in assay [4] is “higher level of the endotoxin”. In addition, the “amount of damage due to bollworm attack vs not treated” value in assay [5] is on record as “less”. In assay [6], the “% change from UTC (Squares per Plant)” value is listed as “+21%”, the “Squares per Plant” value amounted to 9.05, the “% change from UTC (Squares + Bolls)” value is listed as “+18.7%” and the “Squares + Bolls” value was found to be 18.7. Besides, in assay [6] (herbicide at the four-leaf stage, summary of Example 5), the “yield of cotton compared with UTC or cotton treated with other pesticides” value is recorded as “increases the yield of cotton”.

With `CCOP(=S)(OCC)SCCSCC` [disulfoton], in assay [2], the “% change from UTC (Squares per Plant)” value is recorded as −36%, the “Squares per Plant” value is recorded as 5.65, the “% change from UTC (Square & Bolls)” value was “+14%” and the “Square & Bolls” value is listed as 16.5. Besides, in assay [6], the “% change from UTC (Squares per Plant)” value is “+2%”, the “Squares per Plant” value is given as 7.65, the “% change from UTC (Squares + Bolls)” value was −15.0% and the “Squares + Bolls” value came to 12.8.

Take `O=[N+]([O-])N=C1NCCN1Cc1ccc(Cl)nc1` [imidacloprid, 1-(6-chloro-3-pyridylmethyl)-N-nitroimidazolidin-2-ylideneamine]: in assay [2], the “% change from UTC (Squares per Plant)” value was −14%, the “Squares per Plant” value stood at 7.60, the “% change from UTC (Square & Bolls)” value is listed as “+14%” and the “Square & Bolls” value was 16.5. For the same compound, in assay [6], the “% change from UTC (Squares per Plant)” value was “+18%”, the “Squares per Plant” value was determined as 8.70, the “% change from UTC (Squares + Bolls)” value was −0.2% and the “Squares + Bolls” value is recorded as 14.8.
